In assay [1] the target is DNA dC->dU-editing enzyme APOBEC-3G (Homo sapiens, UniProt Q9HC16). In words: Dose Response confirmation of small molecule APOBEC3G DNA Deaminase Inhibitors via a fluorescence-based single-stranded DNA deaminase assay. [Related pubchem assays (depositor defined):AID493012, AID493028]. It counts as functional.
Assay [2] has as its target DNA dC->dU-editing enzyme APOBEC-3A (Homo sapiens, UniProt P31941). In words: A3A deaminase inhibition for selectivity – biochemical, dose response (AID 504722). It counts as functional.
Assay [3] is described as follows: Fluorescence-based cell-based high throughput dose response assay for inhibitors of the interaction of nucleotide-binding oligomerization domain containing 2 (NOD2) and the receptor-interacting serine-threonine kinase 2 (RIPK2). It counts as functional. The following applies: Homo sapiens.
In assay [4] the target is T1, Kappa-type opioid receptor (Homo sapiens, UniProt P41145). It is filed as functional.
Assay [5] is described as follows: viability of HCT116 lacking mutant beta-catenin – cell-based, human colon tumor, dose response (AID 1045).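 Note: HCT116 colon tumor cells with beta catenin knocked out; cells exposed to compound for 60 hours.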 It counts as functional.
A further assay addresses Beta-galactosidase (Escherichia coli, UniProt Q8VNN2). It is filed as functional.
Assay [6] is described as follows: viability of PTEN-deleted HCT116 cells – cell-based, HCT116 PTEN knockout, dose response (AID 1047).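 Note: HCT116 colon tumor cells with PTEN knocked out; cells exposed to compound for 60 hours before readout; potency for loss of cell viability measured by luminescence.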 It counts as functional.
Assay [7] deals with T1, Kappa-type opioid receptor. It counts as functional. The source holds these as a separate data set.
In assay [8] the target is Potassium voltage-gated channel subfamily KQT member 2 (Rattus norvegicus, UniProt O88943). Kind of assay: potentiation of rat KCNQ2 current – cell-based, retigabine-insensitive compounds, dose response (AID 2654). It is filed as functional.
In assay [9] the target is T2, Protein phosphatase methylesterase 1 (Homo sapiens, UniProt Q9Y570). In words: endogenous PME-1 and serine hydrolase inhibition – cell lysate, mouse brain cytosol, FP-rhodamine, gel ABPP, selectivity assay for PME-1 inhibitor project, dose response, panel member PME-1 Assay Panel member description: Inhibition of endogenously expressed PME-1 (AID 2366).
The target in assay [10] is T2, Protein phosphatase methylesterase 1. In words: Late stage results from the probe development effort to identify inhibitors of the protein methylesterase PME-1: Gel-based Activity-Based Protein Profiling (ABPP) IC50: Purified enzyme. It counts as functional.
The next assay has as its target ORF 73 (Human herpesvirus 8, UniProt O40947). In words: KSHV LANA DNA-binding disruption – biochemical, fluorescence polarization, cherry-picked samples, dose response (AID 504725).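 Note: fluorescence polarization of a labeled DNA duplex reporting LANA DNA binding; potency is for inhibitors that block LANA binding to the DNA.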 Also noted: species or system Human gammaherpesvirus 8. In general terms: Polarisation of emitted light reports the rotation of a fluorescent probe.

Molecules are shown by their SMILES. The source made the active and inactive calls.

T2 sequence (Q9Y570 whole entry): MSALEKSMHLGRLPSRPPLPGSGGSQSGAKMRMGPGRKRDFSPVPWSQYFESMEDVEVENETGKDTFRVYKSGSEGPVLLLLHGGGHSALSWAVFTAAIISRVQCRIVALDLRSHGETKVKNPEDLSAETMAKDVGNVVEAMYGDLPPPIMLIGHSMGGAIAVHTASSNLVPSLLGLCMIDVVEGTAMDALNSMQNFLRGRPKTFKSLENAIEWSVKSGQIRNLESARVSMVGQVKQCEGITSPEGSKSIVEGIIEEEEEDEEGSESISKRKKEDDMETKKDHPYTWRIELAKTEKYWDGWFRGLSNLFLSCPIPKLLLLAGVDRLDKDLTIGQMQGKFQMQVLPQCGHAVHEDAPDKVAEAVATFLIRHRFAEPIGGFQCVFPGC
T1 sequence (P41145 whole entry): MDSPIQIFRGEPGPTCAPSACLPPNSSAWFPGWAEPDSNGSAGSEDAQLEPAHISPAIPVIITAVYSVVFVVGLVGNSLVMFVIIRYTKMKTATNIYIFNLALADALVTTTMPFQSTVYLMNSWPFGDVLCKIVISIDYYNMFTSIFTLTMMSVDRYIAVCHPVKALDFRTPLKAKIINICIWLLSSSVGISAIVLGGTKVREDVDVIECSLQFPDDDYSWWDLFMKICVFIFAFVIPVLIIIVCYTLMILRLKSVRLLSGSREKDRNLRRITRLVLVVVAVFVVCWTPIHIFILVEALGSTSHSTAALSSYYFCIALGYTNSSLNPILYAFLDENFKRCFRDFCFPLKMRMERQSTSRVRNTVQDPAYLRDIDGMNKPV
DNA dC->dU-editing enzyme APOBEC-3A, sequence (P31941 whole entry, the tested form may be a part): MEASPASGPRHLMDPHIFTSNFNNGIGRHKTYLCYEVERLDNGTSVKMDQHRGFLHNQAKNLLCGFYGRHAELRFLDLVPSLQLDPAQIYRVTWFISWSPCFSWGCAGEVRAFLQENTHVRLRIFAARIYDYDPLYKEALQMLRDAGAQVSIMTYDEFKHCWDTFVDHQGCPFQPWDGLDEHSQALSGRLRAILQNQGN
ORF 73, sequence (O40947 whole entry): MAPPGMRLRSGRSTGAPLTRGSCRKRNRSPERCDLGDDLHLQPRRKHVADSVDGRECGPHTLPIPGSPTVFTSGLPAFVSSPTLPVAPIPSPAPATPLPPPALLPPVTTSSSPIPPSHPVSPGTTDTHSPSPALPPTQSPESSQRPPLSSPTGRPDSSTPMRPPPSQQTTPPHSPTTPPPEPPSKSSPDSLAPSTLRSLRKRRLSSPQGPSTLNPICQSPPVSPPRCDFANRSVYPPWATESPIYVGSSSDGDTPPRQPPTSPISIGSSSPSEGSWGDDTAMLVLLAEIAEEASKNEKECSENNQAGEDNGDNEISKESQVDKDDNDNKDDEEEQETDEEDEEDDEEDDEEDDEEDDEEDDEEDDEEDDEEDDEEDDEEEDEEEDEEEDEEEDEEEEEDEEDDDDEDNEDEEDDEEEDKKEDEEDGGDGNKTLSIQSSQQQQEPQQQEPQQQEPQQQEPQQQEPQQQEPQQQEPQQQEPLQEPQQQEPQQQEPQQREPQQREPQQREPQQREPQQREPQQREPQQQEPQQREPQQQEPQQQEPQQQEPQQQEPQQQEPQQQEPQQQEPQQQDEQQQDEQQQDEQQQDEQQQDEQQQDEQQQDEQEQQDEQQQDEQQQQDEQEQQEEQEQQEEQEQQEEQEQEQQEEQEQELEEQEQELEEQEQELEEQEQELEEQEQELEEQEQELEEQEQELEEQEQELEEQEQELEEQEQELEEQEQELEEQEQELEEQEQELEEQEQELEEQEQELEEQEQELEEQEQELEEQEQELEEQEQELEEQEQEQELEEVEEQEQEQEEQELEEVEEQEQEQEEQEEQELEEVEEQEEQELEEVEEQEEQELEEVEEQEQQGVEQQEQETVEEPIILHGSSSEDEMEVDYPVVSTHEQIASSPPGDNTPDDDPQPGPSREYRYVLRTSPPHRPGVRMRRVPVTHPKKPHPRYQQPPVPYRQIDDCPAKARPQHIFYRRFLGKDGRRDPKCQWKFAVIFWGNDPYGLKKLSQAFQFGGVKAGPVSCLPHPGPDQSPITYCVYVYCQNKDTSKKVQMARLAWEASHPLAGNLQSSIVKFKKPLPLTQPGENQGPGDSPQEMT
Potassium voltage-gated channel subfamily KQT member 2, sequence (O88943 whole entry): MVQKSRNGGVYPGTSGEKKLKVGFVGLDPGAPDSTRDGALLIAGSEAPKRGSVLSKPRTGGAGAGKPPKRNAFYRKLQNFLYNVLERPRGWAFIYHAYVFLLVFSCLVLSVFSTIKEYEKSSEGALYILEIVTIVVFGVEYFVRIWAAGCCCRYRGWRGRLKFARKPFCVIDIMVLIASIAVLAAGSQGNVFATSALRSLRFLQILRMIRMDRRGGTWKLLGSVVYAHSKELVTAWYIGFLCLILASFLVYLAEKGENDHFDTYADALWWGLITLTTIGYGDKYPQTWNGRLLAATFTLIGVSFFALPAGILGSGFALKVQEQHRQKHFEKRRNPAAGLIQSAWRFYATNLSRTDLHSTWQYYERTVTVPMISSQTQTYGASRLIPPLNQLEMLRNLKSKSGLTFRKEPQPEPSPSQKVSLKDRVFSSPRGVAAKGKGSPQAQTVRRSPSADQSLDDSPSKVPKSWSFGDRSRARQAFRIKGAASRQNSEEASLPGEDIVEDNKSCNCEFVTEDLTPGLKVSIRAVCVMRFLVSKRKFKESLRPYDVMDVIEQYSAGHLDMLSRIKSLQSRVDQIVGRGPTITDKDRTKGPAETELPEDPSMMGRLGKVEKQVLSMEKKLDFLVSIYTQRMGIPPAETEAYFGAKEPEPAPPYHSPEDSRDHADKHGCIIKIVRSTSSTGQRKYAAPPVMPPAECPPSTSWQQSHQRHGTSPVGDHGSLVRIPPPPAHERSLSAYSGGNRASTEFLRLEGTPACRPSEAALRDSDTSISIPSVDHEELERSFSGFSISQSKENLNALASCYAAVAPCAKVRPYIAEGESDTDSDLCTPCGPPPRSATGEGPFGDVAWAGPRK
DNA dC->dU-editing enzyme APOBEC-3G, sequence (Q9HC16 whole entry): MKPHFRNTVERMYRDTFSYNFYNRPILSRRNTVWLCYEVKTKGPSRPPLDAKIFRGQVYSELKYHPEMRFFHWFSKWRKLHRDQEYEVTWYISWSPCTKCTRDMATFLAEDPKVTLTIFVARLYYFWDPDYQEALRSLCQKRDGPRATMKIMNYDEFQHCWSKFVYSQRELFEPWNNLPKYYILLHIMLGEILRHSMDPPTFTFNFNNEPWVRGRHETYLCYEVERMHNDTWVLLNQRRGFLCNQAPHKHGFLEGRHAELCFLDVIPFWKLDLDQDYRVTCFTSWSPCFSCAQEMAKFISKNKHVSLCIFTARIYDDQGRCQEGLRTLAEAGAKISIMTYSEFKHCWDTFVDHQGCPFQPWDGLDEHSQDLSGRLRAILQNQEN
Beta-galactosidase, sequence (Q8VNN2 whole entry): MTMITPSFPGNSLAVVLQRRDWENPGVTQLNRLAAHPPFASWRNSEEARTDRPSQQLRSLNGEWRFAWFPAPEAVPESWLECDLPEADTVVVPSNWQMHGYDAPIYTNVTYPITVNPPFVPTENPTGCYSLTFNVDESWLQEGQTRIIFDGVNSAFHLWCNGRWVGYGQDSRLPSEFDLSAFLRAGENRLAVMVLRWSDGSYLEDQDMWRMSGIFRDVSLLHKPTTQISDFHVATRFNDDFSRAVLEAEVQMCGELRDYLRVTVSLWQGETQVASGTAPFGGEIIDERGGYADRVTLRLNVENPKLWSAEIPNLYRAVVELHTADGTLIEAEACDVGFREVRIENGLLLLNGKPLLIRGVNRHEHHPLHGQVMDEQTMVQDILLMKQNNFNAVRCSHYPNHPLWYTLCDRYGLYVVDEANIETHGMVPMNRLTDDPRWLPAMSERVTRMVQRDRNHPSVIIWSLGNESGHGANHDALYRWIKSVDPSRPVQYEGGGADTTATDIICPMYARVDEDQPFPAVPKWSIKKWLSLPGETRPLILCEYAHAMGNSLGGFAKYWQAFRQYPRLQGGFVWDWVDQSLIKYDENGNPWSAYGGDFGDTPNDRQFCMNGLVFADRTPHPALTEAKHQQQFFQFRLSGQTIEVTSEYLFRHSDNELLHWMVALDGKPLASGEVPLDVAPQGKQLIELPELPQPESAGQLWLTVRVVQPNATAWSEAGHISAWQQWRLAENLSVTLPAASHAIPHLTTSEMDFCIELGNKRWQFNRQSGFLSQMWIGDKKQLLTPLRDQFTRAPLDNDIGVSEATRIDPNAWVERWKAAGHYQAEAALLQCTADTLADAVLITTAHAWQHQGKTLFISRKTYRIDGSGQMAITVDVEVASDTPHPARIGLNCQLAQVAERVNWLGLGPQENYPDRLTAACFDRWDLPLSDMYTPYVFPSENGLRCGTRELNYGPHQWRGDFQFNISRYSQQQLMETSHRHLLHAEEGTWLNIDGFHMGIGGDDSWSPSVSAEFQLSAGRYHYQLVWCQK

A word on the IC50: it is the concentration that inhibits the measured activity by half. Consider `CC(/C=N/n1c(S)nnc1-c1ccco1)=C\c1ccco1`, for which the values for the IC50 in assay [1] and in assay [2] were 2.62 µM (active) and > 100 µM (inactive), respectively.
A word on the EC50: it is the concentration that produces a half-maximal response. As for `N#CC(C#N)=C1C=CC=CN1/C(=C\c1ccco1)C(=O)c1ccc(-c2ccccc2)cc1`, the values for the half-inhibitory concentration (IC50) in [3], in assay [4] and in assay [7] were 0.945 µM (active), 16.1 µM (active) and over 32 µM, respectively. Further, the EC50 in assay [5] was 4.81 µM (active); on Beta-galactosidase, > 31.5 µM (inactive); in [6], 4.69 µM (active).
For `CCOc1ccc(NC(=O)Nc2cccnc2)cc1`, the EC50 in assay [8] is 14.3 µM (active).
On to `CS(=O)(=O)/C(C#N)=C/c1ccccc1`, for which the IC50 was > 20 µM (inactive) in assay [9] and > 20 µM (not active) in assay [10].
A word on the AC50: it is the midpoint of the concentration-response curve, whichever way the signal moves. Turning to `O=C(COc1ccccc1Cc1ccccc1)NCCCN1CCOCC1`, at ORF 73, the half-maximal activity concentration (AC50) is 183 µM (active).

(Values after ChEMBL document CHEMBL1201862, “PubChem BioAssay data set” (2004).)
